# From US20260137701A1, “CHOLESTENOIC ACID (CA) AND A SULFATED DERIVATIVE THEREOF, 3[BETA]-SULFATE-5-CHOLESTENOIC ACID (CA3S), AS ENDOGENOUS EPIGENETIC REGULATORS” (priority 2022, published 2026)
# Legend:
# HepG-2 cells = test: LC-MS/MS determination of CA levels in total cellular and nuclear extracts; type: in vitro ADME, human; settings: addition of 20 μM CA
# Experimental: HepG-2 cells, 5,000 cells/cm^2, were cultured in DMEM (HG, 10% FBS) medium for 3 days, and then treated with 20 μM of CA for 0, 3, 6, 12, and 24 hours. After treatment, the cells were washed twice with cold PBS then harvested with 1 ml PBS. For total cell extraction, the cells were collected by centrifuge at 1,000 rpm for 5 min. For nuclei extraction, the nuclear fractions were extracted according to the manufacture's instructions for NE-PER™ Nuclear and Cytoplasmic Extraction Reagents (Thermo Scientific, Rockford, IL). Total proteins in the cell and nuclear fractions were digested with proteinase K (2 mg/ml), incubated at 50° C. with shaking for 3 hours. The total lipids in the total cell and nuclear fractions were extracted with 10 volumes of chloroform:methanol 1:1, vortexed, and sonicated for 30 mins. The extracts were centrifuged at 1,000 rpm for 5 min, the supernatants were dried up by stream nitrogen, then dissolved with 200 μl of methanol, 2 μl of the extracts were used for the CA analysis by LC-MS/MS system as below.
# Shimadzu LCMS-8600 CL LC-MS system equipped with electrospray ionization (ESI) were used to determine the CA levels. Data were collected and processed using Shimadzu Lab solutions software. Hypersil Gold™ C18 (50 mm×2.1 mm inner diameter, particle size 2.6 μm, Thermo Scientific) was maintained at 40° C. during the analysis. […]
# [1] = system: normal primary human hepatocytes (PHH)
smiles,measurement,setting,value
"CC(CCC[C@@H](C)[C@H]1CC[C@H]2[C@@H]3CC=C4C[C@@H](O)CC[C@]4(C)[C@H]3CC[C@]12C)C(=O)O (stereo partly drawn) [CA, 3β-hydroxy-5-cholestenoic acid]",increase of CA in cellular nuclei,HepG-2 cells; 6 hours,4 fold
same,increase of intracellular CA levels,HepG-2 cells; 12 hours,85 fold
same,death of normal primary human hepatocytes,[1],not the death
